Measurements published in PMC2999882 (Molecular pharmacology, 2008).
Where “and” joins values, the source holds several entries; their conditions need not be identical. Equal values may be shown once. Read-outs that look alike come from different tables or passages of the source.

Tests used:
[1] = molecular target: T1, α4β2 nAChR (Homo sapiens, UniProt P17787+P43681); experiment: cell-based; type: cell-based
[2] = molecular target: T1, α4β2 nAChR; type: cell-based; details: 100 µM coapplied with 30 µM ACh
[3] = molecular target: T2, muscle type (α1β1εδ) nAChR (Homo sapiens, UniProt P02708+Q04844+Q07001); type: cell-based; details: 100 µM; normalized to ACh maximum; detection threshold 0.5%
[4] = molecular target: T2, muscle type (α1β1εδ) nAChR; type: cell-based; details: 100 µM coapplied with 3 µM ACh
[5] = molecular target: T3, 5HT3 receptors (Homo sapiens, UniProt P46098); type: cell-based; details: 100 µM; normalized to maximal serotonin response; detection threshold 5%
T3 sequence (P46098 24-478): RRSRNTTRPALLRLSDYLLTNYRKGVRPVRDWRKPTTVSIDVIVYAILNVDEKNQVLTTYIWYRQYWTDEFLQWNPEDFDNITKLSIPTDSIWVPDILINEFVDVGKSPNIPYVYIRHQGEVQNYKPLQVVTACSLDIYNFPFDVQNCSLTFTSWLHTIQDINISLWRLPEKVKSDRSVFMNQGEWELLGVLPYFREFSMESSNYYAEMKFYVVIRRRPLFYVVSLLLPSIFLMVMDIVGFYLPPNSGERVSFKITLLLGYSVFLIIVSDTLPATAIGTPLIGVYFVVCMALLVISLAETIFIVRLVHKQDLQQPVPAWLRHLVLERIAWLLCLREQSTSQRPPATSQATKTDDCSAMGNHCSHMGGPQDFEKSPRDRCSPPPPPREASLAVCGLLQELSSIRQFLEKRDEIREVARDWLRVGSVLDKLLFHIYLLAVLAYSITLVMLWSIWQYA

[6] = molecular target: T3, 5HT3 receptors; type: cell-based; details: 100 µM coapplied with 10 µM serotonin
[7] = tested on: α7 nAChR; details: cited from earlier work
[8] = tested on: other nAChR tested; details: cited from earlier work
[9] = tested on: α9 nAChR; details: ref Papke et al., 1996; Verbitsky et al., 2000; cited from earlier work
[10] = molecular target: α7 nAChR (Homo sapiens, UniProt P36544)
[11] = molecular target: α3β4 nAChR (Homo sapiens, UniProt P30926+P32297)
[12] = molecular target: T3, 5HT3 receptors; details: cited from earlier work
[13] = molecular target: rat brain membrane α7 sites; details: cited from earlier work
[14] = tested on: human α7; details: cited from earlier work
[15] = molecular target: T3, 5HT3 receptors; details: cited from earlier work; remark: listed apart in the source
[16] = tested on: rat α7 nAChR; details: X. laevis oocytes; ref Papke et al., 2005b; cited from earlier work

Sequence of α7 nAChR (Homo sapiens, UniProt P36544) (P36544 23-502): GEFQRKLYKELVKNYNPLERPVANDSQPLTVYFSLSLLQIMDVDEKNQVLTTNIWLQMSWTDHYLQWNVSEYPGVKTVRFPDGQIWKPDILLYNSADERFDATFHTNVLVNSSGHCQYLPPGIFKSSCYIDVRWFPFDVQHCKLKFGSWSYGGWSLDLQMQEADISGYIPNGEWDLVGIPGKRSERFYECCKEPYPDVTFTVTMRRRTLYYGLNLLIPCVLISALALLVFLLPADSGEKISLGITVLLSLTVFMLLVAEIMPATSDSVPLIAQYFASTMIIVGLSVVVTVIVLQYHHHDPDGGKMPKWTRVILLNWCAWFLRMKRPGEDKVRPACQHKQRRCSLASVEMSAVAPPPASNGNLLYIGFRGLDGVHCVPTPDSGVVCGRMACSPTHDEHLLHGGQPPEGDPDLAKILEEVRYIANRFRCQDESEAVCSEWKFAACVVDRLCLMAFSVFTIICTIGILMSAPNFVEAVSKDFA
T1 sequence (P43681 29-627 limits assumed): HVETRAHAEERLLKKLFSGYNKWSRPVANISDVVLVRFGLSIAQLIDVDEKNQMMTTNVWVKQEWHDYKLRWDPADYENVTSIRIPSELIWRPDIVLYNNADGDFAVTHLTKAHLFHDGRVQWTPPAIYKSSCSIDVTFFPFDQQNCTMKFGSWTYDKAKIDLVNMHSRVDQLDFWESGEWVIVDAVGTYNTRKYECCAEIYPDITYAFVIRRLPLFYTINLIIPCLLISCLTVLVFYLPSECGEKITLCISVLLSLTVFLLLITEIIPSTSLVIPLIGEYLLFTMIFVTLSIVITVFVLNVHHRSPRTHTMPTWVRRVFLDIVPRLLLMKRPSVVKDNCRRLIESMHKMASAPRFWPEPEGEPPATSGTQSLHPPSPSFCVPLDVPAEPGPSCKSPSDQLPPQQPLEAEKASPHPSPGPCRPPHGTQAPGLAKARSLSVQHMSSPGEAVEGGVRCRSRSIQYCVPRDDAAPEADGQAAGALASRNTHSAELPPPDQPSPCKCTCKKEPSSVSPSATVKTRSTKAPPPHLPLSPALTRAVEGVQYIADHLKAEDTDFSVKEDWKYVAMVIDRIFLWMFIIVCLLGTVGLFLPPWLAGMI
T1 sequence (P17787 26-502): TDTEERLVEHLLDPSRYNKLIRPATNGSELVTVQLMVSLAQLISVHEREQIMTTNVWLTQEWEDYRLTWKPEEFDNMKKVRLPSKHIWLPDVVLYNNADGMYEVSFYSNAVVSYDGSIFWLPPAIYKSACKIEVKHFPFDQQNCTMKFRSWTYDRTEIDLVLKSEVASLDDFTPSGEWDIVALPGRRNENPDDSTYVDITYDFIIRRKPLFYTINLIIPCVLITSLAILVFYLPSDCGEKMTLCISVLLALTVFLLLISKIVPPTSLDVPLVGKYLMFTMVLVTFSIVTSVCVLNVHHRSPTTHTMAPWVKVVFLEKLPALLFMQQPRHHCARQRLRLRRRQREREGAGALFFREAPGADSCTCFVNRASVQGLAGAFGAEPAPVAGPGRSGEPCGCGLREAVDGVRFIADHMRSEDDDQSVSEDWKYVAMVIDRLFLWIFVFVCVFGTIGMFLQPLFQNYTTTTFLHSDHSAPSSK
T2 sequence (P02708 21-457): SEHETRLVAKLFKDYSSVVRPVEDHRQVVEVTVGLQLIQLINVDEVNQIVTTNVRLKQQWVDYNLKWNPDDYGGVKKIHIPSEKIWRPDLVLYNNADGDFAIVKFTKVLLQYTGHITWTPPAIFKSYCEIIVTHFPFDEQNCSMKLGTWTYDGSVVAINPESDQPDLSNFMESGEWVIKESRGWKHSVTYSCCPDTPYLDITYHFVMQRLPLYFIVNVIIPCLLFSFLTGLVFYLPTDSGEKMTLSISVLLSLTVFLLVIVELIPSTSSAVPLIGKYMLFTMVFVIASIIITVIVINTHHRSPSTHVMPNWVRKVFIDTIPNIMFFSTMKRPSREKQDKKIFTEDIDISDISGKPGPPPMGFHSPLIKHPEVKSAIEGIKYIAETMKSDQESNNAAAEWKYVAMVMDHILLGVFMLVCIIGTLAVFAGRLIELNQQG
T2 sequence (P11230 24-501 partner): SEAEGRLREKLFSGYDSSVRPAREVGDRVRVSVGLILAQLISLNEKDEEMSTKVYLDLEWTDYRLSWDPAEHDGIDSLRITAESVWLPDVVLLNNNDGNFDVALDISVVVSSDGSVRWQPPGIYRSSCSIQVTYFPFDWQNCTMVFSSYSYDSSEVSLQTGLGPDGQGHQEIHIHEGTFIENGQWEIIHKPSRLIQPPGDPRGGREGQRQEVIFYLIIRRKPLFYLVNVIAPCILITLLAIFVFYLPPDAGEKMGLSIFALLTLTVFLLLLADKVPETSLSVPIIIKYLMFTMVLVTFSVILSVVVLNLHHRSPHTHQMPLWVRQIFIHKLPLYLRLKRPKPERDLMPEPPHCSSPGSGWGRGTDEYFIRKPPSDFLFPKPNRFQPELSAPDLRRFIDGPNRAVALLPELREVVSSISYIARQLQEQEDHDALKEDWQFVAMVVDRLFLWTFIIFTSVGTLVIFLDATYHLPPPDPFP
T2 sequence (Q04844 21-493): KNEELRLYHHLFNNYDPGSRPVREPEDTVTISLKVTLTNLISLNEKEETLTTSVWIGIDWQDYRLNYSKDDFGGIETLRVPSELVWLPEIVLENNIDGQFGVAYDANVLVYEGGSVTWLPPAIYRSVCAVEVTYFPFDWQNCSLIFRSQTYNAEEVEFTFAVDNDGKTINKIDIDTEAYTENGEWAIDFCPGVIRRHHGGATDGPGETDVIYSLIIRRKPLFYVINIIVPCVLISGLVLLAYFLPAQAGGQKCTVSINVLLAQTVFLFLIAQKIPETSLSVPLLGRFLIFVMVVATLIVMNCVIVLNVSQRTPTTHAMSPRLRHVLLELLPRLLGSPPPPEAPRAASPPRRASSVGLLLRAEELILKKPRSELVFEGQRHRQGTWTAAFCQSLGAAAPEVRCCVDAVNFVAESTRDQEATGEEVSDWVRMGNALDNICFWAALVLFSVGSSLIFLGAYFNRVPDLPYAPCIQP
T2 sequence (Q07001 22-517): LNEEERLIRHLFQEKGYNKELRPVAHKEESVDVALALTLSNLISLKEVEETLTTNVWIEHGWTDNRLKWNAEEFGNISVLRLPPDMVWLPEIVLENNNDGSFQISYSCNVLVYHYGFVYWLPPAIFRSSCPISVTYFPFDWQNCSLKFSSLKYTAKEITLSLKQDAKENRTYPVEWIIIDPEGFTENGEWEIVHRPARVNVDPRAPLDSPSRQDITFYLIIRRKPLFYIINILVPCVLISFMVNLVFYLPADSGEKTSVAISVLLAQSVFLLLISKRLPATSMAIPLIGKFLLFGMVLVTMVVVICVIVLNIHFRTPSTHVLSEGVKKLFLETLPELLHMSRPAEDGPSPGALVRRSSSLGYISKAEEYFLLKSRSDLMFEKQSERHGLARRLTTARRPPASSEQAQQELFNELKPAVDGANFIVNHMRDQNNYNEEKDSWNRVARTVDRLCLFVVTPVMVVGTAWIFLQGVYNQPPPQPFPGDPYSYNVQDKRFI
Sequence of α3β4 nAChR (P32297 32-505): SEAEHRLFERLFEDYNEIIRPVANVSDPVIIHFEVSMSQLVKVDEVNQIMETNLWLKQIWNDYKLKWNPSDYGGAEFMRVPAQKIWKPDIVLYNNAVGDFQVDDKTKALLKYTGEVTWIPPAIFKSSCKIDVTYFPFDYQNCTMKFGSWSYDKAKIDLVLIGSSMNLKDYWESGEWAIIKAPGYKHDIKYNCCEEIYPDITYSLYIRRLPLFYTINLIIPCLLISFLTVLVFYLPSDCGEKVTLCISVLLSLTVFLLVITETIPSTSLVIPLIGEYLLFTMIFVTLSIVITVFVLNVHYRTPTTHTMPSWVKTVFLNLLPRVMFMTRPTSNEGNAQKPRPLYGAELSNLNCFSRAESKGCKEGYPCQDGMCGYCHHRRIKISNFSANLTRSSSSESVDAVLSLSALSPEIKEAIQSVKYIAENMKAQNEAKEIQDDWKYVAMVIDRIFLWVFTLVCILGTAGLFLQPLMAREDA
Sequence of α3β4 nAChR (P30926 22-498): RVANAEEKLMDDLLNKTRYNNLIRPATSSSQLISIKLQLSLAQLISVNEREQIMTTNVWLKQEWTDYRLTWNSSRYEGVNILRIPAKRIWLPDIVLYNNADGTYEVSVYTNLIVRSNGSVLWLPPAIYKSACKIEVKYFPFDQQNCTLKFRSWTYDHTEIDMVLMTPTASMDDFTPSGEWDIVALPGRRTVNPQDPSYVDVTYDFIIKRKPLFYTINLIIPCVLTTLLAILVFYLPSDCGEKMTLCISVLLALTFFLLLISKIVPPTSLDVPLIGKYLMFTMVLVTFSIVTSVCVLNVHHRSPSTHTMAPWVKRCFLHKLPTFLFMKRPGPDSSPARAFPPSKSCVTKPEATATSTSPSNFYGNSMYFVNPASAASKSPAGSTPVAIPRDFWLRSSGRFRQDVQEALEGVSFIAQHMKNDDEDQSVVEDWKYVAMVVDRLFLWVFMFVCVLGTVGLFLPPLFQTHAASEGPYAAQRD

C[N+](C)(C)CCO [Choline, choline, reference compound]
α4β2 Activity ([1]; 100 µM, normalized to ACh maximum, detection threshold 1%): ≈1%
α4β2 response, % of the ACh maximum ([1]; 3 mM agonist): 2.3 ± 0.3% and 2%
α4β2 Inhibition [2]: N.S.
α1β1εδ Activity [3]: N
α1β1εδ Inhibition [4]: N.S.
5HT3 Activity [5]: N
5HT3 Inhibition [6]: N.S.
potency for α7, fold lower than that of ACh [7]: 10 fold
activity at heteromeric nAChR (Summary) ([8]; ref Papke et al., 1996, Verbitsky et al., 2000): little or no activity
activity at α9 nAChR (Summary) [9]: agonist
EC50 [10]: 243 ± 8 µM
α7 Imax [10]: 0.90 ± 0.1
α7 potency, fold less potent than ACh [10]: approximately 10 fold
α7 potency, fold lower than related agonists that lack the oxygen group (e.g., ETMA and QN) [10]: at least 10 fold
agonist character at α3β4 [11]: too low to be characterized in regard to potency
α3β4 Imax ([11]; peak current, relative to ACh maximum (ACh constrained to 1)): 0.04 ± 0.01

C[C@H](OC(=O)N[C@@H]1CN2CCC1CC2)c1ccccc1F [JN403]
α7 efficacy, % of that of ACh [7]: In the X. laevis oocyte experiments, JN403 was a relatively potent partial agonist, with an efficacy of approximately 50% of that of ACh. 5HT3 receptors and other nAChRs were evaluated with calcium flux measurements in transfected cells, and JN403 was antagonist in these experiments.
activity at 5HT3 receptors and other nAChRs (Summary) [8]: In the X. laevis oocyte experiments, JN403 was a relatively potent partial agonist, with an efficacy of approximately 50% of that of ACh. 5HT3 receptors and other nAChRs were evaluated with calcium flux measurements in transfected cells, and JN403 was antagonist in these experiments.
IC50 ([12]; read-out: IC50 5HT3 receptors (antagonist)): ~20 µM

O=C(N[C@H]1CN2CCC1CC2)c1ccc(Cl)cc1 [PNU-282987]
Ki ([13]; read-out: Ki, displacement of MLA binding from rat brain homogenates): 0.027 µM
IC50 ([12]; read-out: IC50 5HT3 receptors (functional antagonist)): ~5 µM

c1cncc(C2CCC3CCN2CC3)c1 (stereo not shown) [TC-1698, 2-(3-pyridyl)-1-azabicyclo[3.2.2]nonane]
agonist character at α7 (Summary) [7]: A potent full agonist for α7 nAChR with negligible activation of the heteromeric neuronal nAChR tested but with low-potency partial agonist activity for muscle nAChR. Effective competitive antagonist at α4β2 nAChR.
activation of the heteromeric neuronal nAChR tested (Summary) [8]: A potent full agonist for α7 nAChR with negligible activation of the heteromeric neuronal nAChR tested but with low-potency partial agonist activity for muscle nAChR. Effective competitive antagonist at α4β2 nAChR.
activity at α4β2 nAChR (Summary) [8]: A potent full agonist for α7 nAChR with negligible activation of the heteromeric neuronal nAChR tested but with low-potency partial agonist activity for muscle nAChR. Effective competitive antagonist at α4β2 nAChR.
activity for muscle nAChR (Summary) [8]: A potent full agonist for α7 nAChR with negligible activation of the heteromeric neuronal nAChR tested but with low-potency partial agonist activity for muscle nAChR. Effective competitive antagonist at α4β2 nAChR.

COc1ccccc1-c1cccc2cc(C(=O)N[C@H]3CN4CCC3CC4)oc12 [ABBF, N-[(3R)-1-azabicyclo[2.2.2]oct-3-yl]-7-[2-(methoxy)phenyl]-1-benzofuran-2-carboxamide]
agonist character at human α7 (Summary) [14]: Putative full agonist for human α7 (EC50 ≈ 3 µM) and an antagonist for other nAChR tested (IC50 values of 1–8 µM). Mechanism of antagonism not investigated. Bound to 5HT3 receptors with high affinity (60 nM), comparable with rat brain membrane α7 sites (62 nM).
EC50 ([14]; read-out: EC50 human α7): ~3 µM
affinity for 5HT3 receptors [15]: Putative full agonist for human α7 (EC50 ≈ 3 µM) and an antagonist for other nAChR tested (IC50 values of 1–8 µM). Mechanism of antagonism not investigated. Bound to 5HT3 receptors with high affinity (60 nM), comparable with rat brain membrane α7 sites (62 nM).
affinity for rat brain membrane α7 sites [13]: Putative full agonist for human α7 (EC50 ≈ 3 µM) and an antagonist for other nAChR tested (IC50 values of 1–8 µM). Mechanism of antagonism not investigated. Bound to 5HT3 receptors with high affinity (60 nM), comparable with rat brain membrane α7 sites (62 nM).
Effects on 5HT3 Receptors [12]: Antagonist

cis-1-methyl-2,3,3a,4,5,9b,-hexahydro-1H-pyrrolo[2,3-f]quinoline [ACME]
Imax, % of that of ACh, rat α7 nAChR [16]: The rigid nicotine analogs ACME and ACME-B were partial agonists for rat α7 nAChR (Imax, 10 and 20% of that of ACh, respectively). ACME-B was 2-fold more potent (EC50 ≈ 26 µM) than the boron-free form ACME. Potential antagonist activity of non-α7 nAChR not investigated.
